These molecules were tested against α4β1 (Homo sapiens, UniProt P05556+P13612) (assay: α4β1 integrin inhibition, IC50). Conditions: read-out: α4β1 IC50.
Assay type: binding

Chain of α4β1 (P13612 34-1032): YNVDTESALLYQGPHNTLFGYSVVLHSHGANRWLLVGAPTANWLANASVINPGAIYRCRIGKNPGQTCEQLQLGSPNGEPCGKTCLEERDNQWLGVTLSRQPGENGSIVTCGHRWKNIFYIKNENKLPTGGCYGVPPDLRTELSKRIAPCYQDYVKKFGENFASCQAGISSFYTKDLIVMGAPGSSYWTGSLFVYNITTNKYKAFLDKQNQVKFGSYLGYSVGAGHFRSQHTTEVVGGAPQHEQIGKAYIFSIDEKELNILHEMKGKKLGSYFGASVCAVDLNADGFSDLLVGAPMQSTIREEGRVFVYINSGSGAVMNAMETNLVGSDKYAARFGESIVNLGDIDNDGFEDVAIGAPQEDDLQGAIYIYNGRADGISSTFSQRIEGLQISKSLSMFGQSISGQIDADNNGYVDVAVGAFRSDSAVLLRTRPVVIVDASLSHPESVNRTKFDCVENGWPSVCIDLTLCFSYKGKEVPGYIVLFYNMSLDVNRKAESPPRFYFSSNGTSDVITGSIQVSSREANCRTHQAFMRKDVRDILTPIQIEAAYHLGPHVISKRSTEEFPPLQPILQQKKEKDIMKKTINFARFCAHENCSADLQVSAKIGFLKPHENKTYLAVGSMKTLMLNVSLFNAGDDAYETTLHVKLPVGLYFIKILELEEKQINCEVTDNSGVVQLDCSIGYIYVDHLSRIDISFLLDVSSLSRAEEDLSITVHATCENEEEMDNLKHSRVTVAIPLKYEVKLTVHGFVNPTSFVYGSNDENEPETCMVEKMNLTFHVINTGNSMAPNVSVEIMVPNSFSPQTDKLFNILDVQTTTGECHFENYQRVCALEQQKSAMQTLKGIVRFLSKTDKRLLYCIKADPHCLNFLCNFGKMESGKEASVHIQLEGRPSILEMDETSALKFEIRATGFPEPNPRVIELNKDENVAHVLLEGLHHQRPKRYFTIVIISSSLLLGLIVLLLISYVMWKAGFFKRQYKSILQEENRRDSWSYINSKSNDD
Chain of α4β1 (P05556 21-798): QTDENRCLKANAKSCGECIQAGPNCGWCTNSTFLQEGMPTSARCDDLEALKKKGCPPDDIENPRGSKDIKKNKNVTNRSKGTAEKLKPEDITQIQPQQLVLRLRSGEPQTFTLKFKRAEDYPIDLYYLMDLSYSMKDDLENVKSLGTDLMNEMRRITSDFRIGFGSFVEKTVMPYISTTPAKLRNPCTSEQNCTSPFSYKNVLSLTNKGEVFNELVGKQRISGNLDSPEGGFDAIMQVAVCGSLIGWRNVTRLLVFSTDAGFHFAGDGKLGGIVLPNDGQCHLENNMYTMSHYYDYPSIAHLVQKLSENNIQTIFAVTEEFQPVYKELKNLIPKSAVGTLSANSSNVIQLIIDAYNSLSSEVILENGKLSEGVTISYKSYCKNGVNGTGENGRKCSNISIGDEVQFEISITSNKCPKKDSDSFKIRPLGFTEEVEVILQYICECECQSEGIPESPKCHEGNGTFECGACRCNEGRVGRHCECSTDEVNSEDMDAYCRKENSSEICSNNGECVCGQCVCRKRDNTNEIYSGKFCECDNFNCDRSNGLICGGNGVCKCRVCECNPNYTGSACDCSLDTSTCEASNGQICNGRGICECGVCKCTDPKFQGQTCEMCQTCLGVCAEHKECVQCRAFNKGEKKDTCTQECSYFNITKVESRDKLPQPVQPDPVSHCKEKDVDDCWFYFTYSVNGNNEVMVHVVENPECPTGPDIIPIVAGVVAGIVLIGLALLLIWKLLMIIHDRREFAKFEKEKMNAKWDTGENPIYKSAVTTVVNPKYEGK

SMILES | IC50 [nM]
Cn1ccc(O)c(NC(=O)N[C@@H](CC(=O)O)c2cc(-c3ccccc3)cc(C(F)(F)F)c2)c1=O [1-618, sodium (S)-3-(3-(1-methyl-4-oxido-2-oxo-1,2-dihydropyridin-3-yl)ureido)-3-(5-(trifluoromethyl)biphenyl-3-yl)propanoate] | > 200
COc1cccc(-c2cc(C)cc([C@H](CC(=O)O)NC(=O)Nc3c(O)cc(C)n(C)c3=O)c2)c1 [1-586, sodium (S)-3-(3-(1,6-dimethyl-4-oxido-2-oxo-1,2-dihydropyridin-3-yl)ureido)-3-(3′-methoxy-5-methylbiphenyl-3-yl)propanoate] | < 20
Cc1cc(-c2ccc(F)cc2F)cc([C@H](CC(=O)O)NC(=O)Nc2c(O)ccn(C)c2=O)c1 [1-574, sodium (S)-3-(2′,4′-difluoro-5-methylbiphenyl-3-yl)-3-(3-(1-methyl-4-oxido-2-oxo-1,2-dihydropyridin-3-yl)ureido)propanoate] | < 20
Cc1cc(O)c(NC(=O)N[C@@H](CC(=O)O)c2cc(-c3ccc(F)cc3F)cs2)c(=O)n1C [1-552, sodium (S)-3-(4-(2,4-difluorophenyl)thiophen-2-yl)-3-(3-(1,6-dimethyl-4-oxido-2-oxo-1,2-dihydropyridin-3-yl)ureido)propanoate] | < 20
Cc1cc(-c2cccc([C@H](CC(=O)O)NC(=O)Nc3c(O)c(C)cn(C)c3=O)c2)ccc1F [1-497, sodium (S)-3-(3-(1,5-dimethyl-4-oxido-2-oxo-1,2-dihydropyridin-3-yl)ureido)-3-(4′-fluoro-3′-methylbiphenyl-3-yl)propanoate] | < 200
Cn1c(=O)c(NC(=O)N[C@@H](CC(=O)O)c2cccc(-c3ccc(F)cc3F)c2)c(O)c2cccnc21 [1-526, sodium (S)-3-(2′,4′-difluorobiphenyl-3-yl)-3-(3-(1-methyl-4-oxido-2-oxo-1,2-dihydro-1,8-naphthyridin-3-yl)ureido)propanoate] | < 200
COc1cc([C@H](CC(=O)O)NC(=O)Nc2c(O)c(C)cn(C)c2=O)cc(-c2ccccc2)c1OC [1-475, sodium (S)-3-(5,6-dimethoxybiphenyl-3-yl)-3-(3-(1,5-dimethyl-4-oxido-2-oxo-1,2-dihydropyridin-3-yl)ureido)propanoate] | < 200
Cn1c(=O)c(NC(=O)N[C@@H](CC(=O)O)c2cccc(-c3ccc(F)cc3F)c2)c(O)c2sccc21 [1-515, sodium (S)-3-(2′,4′-difluorobiphenyl-3-yl)-3-(3-(4-methyl-7-oxido-5-oxo-4,5-dihydrothieno[3,2-b]pyridin-6-yl)ureido)propanoate] | < 20
Cn1ccc(O)c(NC(=O)N[C@@H](CC(=O)O)c2cncc(-c3ccccc3)c2)c1=O [1-641, sodium (S)-3-(3-(1-methyl-4-oxido-2-oxo-1,2-dihydropyridin-3-yl)ureido)-3-(5-phenylpyridin-3-yl)propanoate] | < 20
Cc1cn(C)c(=O)c(NC(=O)N[C@@H](CC(=O)O)c2ccc(F)c(-c3ccccc3)c2)c1O [1-442, sodium (S)-3-(3-(1,5-dimethyl-4-oxido-2-oxo-1,2-dihydropyridin-3-yl)ureido)-3-(6-fluorobiphenyl-3-yl)propanoate] | < 20
COc1ccc(-c2cccc([C@H](CC(=O)O)NC(=O)Nc3c(O)c(C)cn(C)c3=O)c2)cn1 [1-476, sodium (S)-3-(3-(1,5-dimethyl-4-oxido-2-oxo-1,2-dihydropyridin-3-yl)ureido)-3-(3-(6-methoxypyridin-3-yl)phenyl)propanoate] | < 20
Cn1ccc(O)c(NC(=O)N[C@@H](CC(=O)O)c2cccc(-c3ccccc3OC(F)(F)F)c2)c1=O [1-512, sodium (S)-3-(3-(1-methyl-4-oxido-2-oxo-1,2-dihydropyridin-3-yl)ureido)-3-(2′-(trifluoromethoxy)biphenyl-3-yl)propanoate] | < 20
COc1ccc([C@H](CC(=O)O)NC(=O)Nc2c(O)ccn(C)c2=O)cc1-c1ccc(F)cc1F [1-519, sodium (S)-3-(2′,4′-difluoro-6-methoxybiphenyl-3-yl)-3-(3-(1-methyl-4-oxido-2-oxo-1,2-dihydropyridin-3-yl)ureido)propanoate] | < 20
Cc1cn(C)c(=O)c(NC(=O)N[C@@H](CC(=O)O)c2cc(-c3ccccc3)ccc2F)c1O [1-493, sodium (S)-3-(3-(1,5-dimethyl-4-oxido-2-oxo-1,2-dihydropyridin-3-yl)ureido)-3-(4-fluorobiphenyl-3-yl)propanoate] | < 200
Cn1ccc(O)c(NC(=O)N[C@@H](CC(=O)O)c2ccc(OC(F)(F)F)c(-c3ccccc3)c2)c1=O [1-625, sodium (S)-3-(3-(1-methyl-4-oxido-2-oxo-1,2-dihydropyridin-3-yl)ureido)-3-(6-(trifluoromethoxy)biphenyl-3-yl)propanoate] | < 200
Cn1ncc(O)c(NC(=O)N[C@@H](CC(=O)O)c2cccc(-c3ccc(F)cc3F)c2)c1=O [1-549, sodium (S)-3-(2′,4′-difluorobiphenyl-3-yl)-3-(3-(2-methyl-5-oxido-3-oxo-2,3-dihydropyridazin-4-yl)ureido)propanoate] | < 20
CC(=O)c1cccc(-c2cccc(C(CC(=O)O)NC(=O)Nc3c(O)c(C)cn(C)c3=O)c2)c1 (stereo not drawn) [1-626, sodium 3-(3′-acetylbiphenyl-3-yl)-3-(3-(1,5-dimethyl-4-oxido-2-oxo-1,2-dihydropyridin-3-yl)ureido)propanoate] | < 20
Cc1cn(C)c(=O)c(NC(=O)NC(CC(=O)O)c2cccc(-c3ccc(Cl)c(Cl)c3)c2)c1O (stereo not drawn) [1-481, sodium 3-(3′,4′-dichlorobiphenyl-3-yl)-3-(3-(1,5-dimethyl-4-oxido-2-oxo-1,2-dihydropyridin-3-yl)ureido)propanoate] | < 200
CCn1cc(C)c(O)c(NC(=O)NC(CC(=O)O)c2cccc(-c3ccc(Cl)c(Cl)c3)c2)c1=O (stereo not drawn) [1-480, sodium 3-(3′,4′-dichlorobiphenyl-3-yl)-3-(3-(1-ethyl-5-methyl-4-oxido-2-oxo-1,2-dihydropyridin-3-yl)ureido)propanoate] | < 200
Cn1ccc(O)c(NC(=O)N[C@@H](CC(=O)O)c2cccc(-c3cccc(OC(F)(F)F)c3)c2)c1=O [1-514, sodium (S)-3-(3-(1-methyl-4-oxido-2-oxo-1,2-dihydropyridin-3-yl)ureido)-3-(3′-(trifluoromethoxy)biphenyl-3-yl)propanoate] | < 20

Second part, the molecule after the results:

IC50 [nM] | SMILES
< 20 | COc1cccc(-c2cc(F)cc([C@H](CC(=O)O)NC(=O)Nc3c(O)ccn(C)c3=O)c2)c1 [1-604, sodium (S)-3-(5-fluoro-3′-methoxybiphenyl-3-yl)-3-(3-(1-methyl-4-oxido-2-oxo-1,2-dihydropyridin-3-yl)ureido)propanoate]
< 20 | Cn1ccc(O)c(NC(=O)N[C@@H](CC(=O)O)c2ccc(-c3cc(F)ccc3F)s2)c1=O [1-614, sodium (S)-3-(5-(2,5-difluorophenyl)thiophen-2-yl)-3-(3-(1-methyl-4-oxido-2-oxo-1,2-dihydropyridin-3-yl)ureido)propanoate]
< 20 | Cc1cscc1-c1ccc([C@H](CC(=O)O)NC(=O)Nc2c(O)ccn(C)c2=O)s1 [1-584, sodium (S)-3-(4′-methyl-2,3′-bithiophen-5-yl)-3-(3-(1-methyl-4-oxido-2-oxo-1,2-di hydropyridin-3-yl)ureido)propanoate]
< 20 | Cn1ccc(O)c(NC(=O)N[C@@H](CC(=O)O)c2cccc(-c3ccccc3)c2)c1=O [1-505, sodium (S)-3-(biphenyl-3-yl)-3-(3-(1-methyl-4-oxido-2-oxo-1,2-dihydropyridin-3-yl)ureido)propanoate]
< 20 | Cc1cscc1-c1ccc([C@H](CC(=O)O)NC(=O)Nc2c(O)cc(C)n(C)c2=O)s1 [1-585, sodium (S)-3-(3-(1,6-dimethyl-4-oxido-2-oxo-1,2-dihydropyridin-3-yl)ureido)-3-(4′-methyl-2,3′-bithiophen-5-yl)propanoate]
< 20 | Cn1ccc(O)c(NC(=O)N[C@@H](CC(=O)O)c2cccc(-c3cc[nH]c3)c2)c1=O [1-544, sodium (S)-3-(3-(1H-pyrrol-3-yl)phenyl)-3-(3-(1-methyl-4-oxido-2-oxo-1,2-dihydropyridin-3-yl)ureido)propanoate]
< 200 | Cc1cccc(C)c1-c1ccc([C@H](CC(=O)O)NC(=O)Nc2c(O)ccn(C)c2=O)cc1 [1-636, sodium (S)-3-(2′,6′-dimethylbiphenyl-4-yl)-3-(3-(1-methyl-4-oxido-2-oxo-1,2-dihydropyridin-3-yl)ureido)propanoate]
< 20 | COc1ccc(-c2cccc([C@H](CC(=O)O)NC(=O)Nc3c(O)ccn(C)c3=O)c2)nn1 [1-640, sodium (S)-3-(3-(6-methoxypyridazin-3-yl)phenyl)-3-(3-(1-methyl-4-oxido-2-oxo-1,2-dihydropyridin-3-yl)ureido)propanoate]
< 200 | Cc1ccc(-c2cccc([C@H](CC(=O)O)NC(=O)Nc3c(O)c(C)cn(C)c3=O)c2)cc1 [1-450, sodium (S)-3-(3-(1,5-dimethyl-4-oxido-2-oxo-1,2-dihydropyridin-3-yl)ureido)-3-(4′-methylbiphenyl-3-yl)propanoate]
< 20 | Cc1cccc(C)c1-c1ccc([C@H](CC(=O)O)NC(=O)Nc2c(O)ccn(C)c2=O)s1 [1-587, sodium (S)-3-(5-(2,6-dimethylphenyl)thiophen-2-yl)-3-(3-(1-methyl-4-oxido-2-oxo-1,2-dihydropyridin-3-yl)ureido)propanoate]
< 20 | COc1cccc(-c2ccc([C@H](CC(=O)O)NC(=O)Nc3c(O)ccn(C)c3=O)s2)c1 [1-563, sodium (S)-3-(5-(3-methoxyphenyl)thiophen-2-yl)-3-(3-(1-methyl-4-oxido-2-oxo-1,2-dihydropyridin-3-yl)ureido)propanoate]
< 20 | Cn1ccc(O)c(NC(=O)N[C@@H](CC(=O)O)c2cccc(-c3ccccn3)c2)c1=O [1-639, sodium (S)-3-(3-(1-methyl-4-oxido-2-oxo-1,2-dihydropyridin-3-yl)ureido)-3-(3-(pyridin-2-yl)phenyl)propanoate]
< 200 | Cn1ccc(O)c(NC(=O)N[C@@H](CC(=O)O)c2ccc(-c3cccc(F)c3)s2)c1=O [1-620, sodium (S)-3-(5-(3-fluorophenyl)thiophen-2-yl)-3-(3-(1-methyl-4-oxido-2-oxo-1,2-dihydropyridin-3-yl)ureido)propanoate]
